Test results taken from publication PMC5626944 (Frontiers in Pharmacology, 2017).
Like-named read-outs stand apart in the source and are kept apart here.

Experiments:
[1] = molecular target: T1, Low-sensitivity α4(3)β2(2) nAChRs (Mus musculus, UniProt O70174+Q9ERK7); experiment: 86Rb+ efflux from thalamic and cortical synaptosomes, DhβE-insensitive component; type: biochemical
T1 construct: from tissue; host or cells: WT mouse thalamic and cortical synaptosomes
Experimental: (§1) Regions of interest were dissected from fresh mouse brains and homogenized in ice-cold isotonic sucrose (0.32 M), buffered with HEPES (5 mM, pH 7.5). The suspension was centrifuged at 12,000 × g for 20 min.

[2] = molecular target: T2, α4β2 (α5KO) nAChRs (Mus musculus, UniProt O70174+Q9ERK7); experiment: 86Rb+ efflux from α5KO thalamic and cortical synaptosomes; type: biochemical
T2 construct: from tissue; host or cells: thalamic and cortical synaptosomes of α5KO mice
Experimental: as §1

[3] = tested on: WT, α6L9′S, α6KO, α4KO and β2KO mice; experiment: Conditioned place preference; type: in vivo, mouse; details: for ED50: Mus musculus, read-out: CPP ED50
Source text: Male, 3–6-month-old mice were used in our CPP assays. Various genotypes were used: WT, α6L9′S, α4L9′S (hypersensitive […]), α6KO, α4KO, and β2KO. All WT mice were C57BL/6J and all other genotypes have been backcrossed with C57BL/6J mice for ≥10 generations. The CPP apparatus (Med Associates, East Fairfield, VT, United States) was a rectangular cage with interior dimensions of 46.5 × 12.7 × 12.7(H) cm, divided into three sub-compartments: white and black (each 16.8 cm L) with steel mesh and rod floors, respectively, and a central gray compartment (7.2 cm L) with a solid plastic floor. […] Drop-down doors separated the chambers.
Mice were housed singly and habituated to the experimental room for 3–7 days before initial testing and remained in the experimental room for the duration of the experiment. We chose a biased method for CPP. On day 1 (pre-training) mice were placed in the center chamber and allowed to explore the apparatus freely for 20 min. Time spent in each chamber was recorded, and drug pairing was determined by the least preferred chamber. Mice with a severe initial bias for one chamber (defined as ≥65% time spent in one conditioning chamber) were excluded. On days 2, 4, 6, and 8, mice were injected with the drug of interest, and were confined to the drug-paired chamber for 20 min. On days 3, 5, 7, and 9, mice were injected with saline and confined to the opposite chamber. On day 10 (post-training), mice were again given free access to the apparatus for 20 min, and the time spent in each chamber was recorded. CPP was determined by measuring the change in the difference between the time spent in the drug-paired chamber and the saline-paired chamber from pre- to post-training.

[4] = tested on: T3, Adrenergic, Alpha 1B; experiment: NovaScreen competition binding; details: 1 µM
T3 construct: PerkinElmer – Caliper Life Sciences (NovaScreen service)

[5] = tested on: T4, Adrenergic, Alpha 2A (h); experiment: NovaScreen competition binding; set-up: species or system human; details: 1 µM
T4 construct: PerkinElmer – Caliper Life Sciences (NovaScreen service)

[6] = tested on: T5, Adrenergic, Alpha 2C (h); experiment: NovaScreen competition binding; set-up: species or system human; details: 1 µM
T5 construct: PerkinElmer – Caliper Life Sciences (NovaScreen service)

[7] = tested on: Adrenergic, Beta 2 (h); experiment: NovaScreen competition binding; set-up: species or system human; details: 1 µM
[8] = tested on: Dopamine, D1 (h); experiment: NovaScreen competition binding; set-up: species or system human; details: 1 µM
[9] = tested on: GABA A, Agonist Site; experiment: NovaScreen competition binding; details: 1 µM
[10] = tested on: Glutamate, AMPA Site (Ionotropic); experiment: NovaScreen competition binding; details: 1 µM
[11] = tested on: Glutamate, MK-801 Site (Ionotropic); experiment: NovaScreen competition binding; details: 1 µM
[12] = tested on: Glutamate, NMDA, Phencyclidine Site (Ionotropic); experiment: NovaScreen competition binding; details: 1 µM
[13] = tested on: Glycine, Strychnine-sensitive; experiment: NovaScreen competition binding; details: 1 µM
[14] = tested on: T6, Histamine, H1; experiment: NovaScreen competition binding; details: 1 µM
T6 construct: PerkinElmer – Caliper Life Sciences (NovaScreen)

[15] = tested on: Muscarinic, M3 (h); experiment: NovaScreen competition binding; set-up: species or system human; details: 1 µM
[16] = tested on: Muscarinic, M5 (h); experiment: NovaScreen competition binding; set-up: species or system human; details: 1 µM
[17] = tested on: Norepinephrine Transporter; experiment: NovaScreen competition binding; details: 1 µM
[18] = tested on: Opioid, Delta 2 (h); experiment: NovaScreen competition binding; set-up: species or system human; details: 1 µM
[19] = tested on: Serotonin, 5HT1D; experiment: NovaScreen competition binding; details: 1 µM
[20] = tested on: Serotonin, 5HT6 (h); experiment: NovaScreen competition binding; set-up: species or system human; details: 1 µM
[21] = tested on: Calcium Channel, Type L (Dihydropyridine Site); experiment: NovaScreen competition binding; details: 1 µM
[22] = tested on: Calcium Channel, Type N; experiment: NovaScreen competition binding; details: 1 µM
[23] = tested on: GABA, Chloride, TBOB Site; experiment: NovaScreen competition binding; details: 1 µM
[24] = tested on: T7, Thromboxane A2 (h) [SQ 29,548]; experiment: NovaScreen competition binding; set-up: species or system human; details: 1 µM
T7 construct: PerkinElmer – Caliper Life Sciences (NovaScreen service)

[25] = tested on: T8, Phosphodiesterase, PDE5A1 (h); experiment: NovaScreen enzyme assay; type: biochemical, human; details: 1 µM
T8 construct: PerkinElmer – Caliper Life Sciences (NovaScreen service)

T2 sequence (O70174 31-629): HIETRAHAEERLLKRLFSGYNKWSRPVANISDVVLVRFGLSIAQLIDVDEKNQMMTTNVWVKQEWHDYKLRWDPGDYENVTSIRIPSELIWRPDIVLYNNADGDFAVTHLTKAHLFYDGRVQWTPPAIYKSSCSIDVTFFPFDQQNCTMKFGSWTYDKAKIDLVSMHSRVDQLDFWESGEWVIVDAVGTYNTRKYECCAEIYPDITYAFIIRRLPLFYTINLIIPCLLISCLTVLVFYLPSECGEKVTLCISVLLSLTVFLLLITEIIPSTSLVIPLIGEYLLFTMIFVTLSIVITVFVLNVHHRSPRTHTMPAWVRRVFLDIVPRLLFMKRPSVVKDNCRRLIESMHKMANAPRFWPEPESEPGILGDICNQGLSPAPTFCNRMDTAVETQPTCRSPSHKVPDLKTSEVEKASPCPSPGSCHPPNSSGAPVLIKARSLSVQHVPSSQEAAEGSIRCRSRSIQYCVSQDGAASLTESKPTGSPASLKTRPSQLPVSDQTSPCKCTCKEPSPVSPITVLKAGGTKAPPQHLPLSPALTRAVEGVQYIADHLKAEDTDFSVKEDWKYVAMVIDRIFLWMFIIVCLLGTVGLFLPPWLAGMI
T2 sequence (Q9ERK7 26-501): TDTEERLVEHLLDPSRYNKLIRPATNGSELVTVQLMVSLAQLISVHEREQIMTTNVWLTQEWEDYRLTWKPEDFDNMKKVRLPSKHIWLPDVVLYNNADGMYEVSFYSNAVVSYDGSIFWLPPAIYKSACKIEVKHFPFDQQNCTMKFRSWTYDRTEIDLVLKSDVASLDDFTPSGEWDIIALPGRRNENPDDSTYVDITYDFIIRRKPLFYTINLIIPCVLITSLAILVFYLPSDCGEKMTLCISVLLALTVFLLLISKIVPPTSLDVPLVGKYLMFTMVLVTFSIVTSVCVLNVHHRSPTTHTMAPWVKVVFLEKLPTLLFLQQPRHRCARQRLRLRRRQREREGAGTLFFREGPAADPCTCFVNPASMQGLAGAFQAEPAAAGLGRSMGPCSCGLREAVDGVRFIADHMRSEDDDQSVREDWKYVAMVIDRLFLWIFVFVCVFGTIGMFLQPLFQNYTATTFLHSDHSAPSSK
T1 sequence (O70174 31-629): as the sequence (O70174 31-629) above
T1 sequence (Q9ERK7 26-501): as the sequence (Q9ERK7 26-501) above

C1=C(/c2cncnc2)CCCNCC/1 [TC299423, (E)-5-(pyrimidin-5-yl)-1,2,3,4,7,8-hexahydroazocine]
86Rb+ efflux Efficacy ([1]; Cortex): 39 ± 4% | EC50 ([1]; Cortex): 26 ± 21 µM | 86Rb+ efflux Efficacy ([1]; Thalamus): 32 ± 10% | EC50 ([1]; Thalamus): 10 ± 10 µM | 86Rb+ efflux Efficacy ([2]; Cortex): 169 ± 20% | EC50 ([2]; Cortex): 2.4 ± 0.7 µM | 86Rb+ efflux Efficacy ([2]; Thalamus): 166 ± 32% | EC50 ([2]; Thalamus): 1.6 ± 0.5 µM | CPP difference scores in α4KO mice vs WT ([3]; 0.012 mg/kg): no effect | CPP difference scores in α6KO and β2KO mice vs WT ([3]; 0.012 mg/kg): dramatically reduced | ED50 ([3]; WT mice, Michaelis–Menten fit): 4 ± 3 µg/kg | ED50 ([3]; α6L9′S mice): < 1 µg/kg | CPP difference score vs saline-injected control ([3]; WT mice, 0.012 mg/kg, t-test p = 0.047): marginally significant increase | Overall effect on CPP ([3]; WT mice, 1, 4, 12, 25 μg/kg, one-way ANOVA): no significant overall effect | Overall effect on the CPP difference score ([3]; α6L9′S mice, 1, 4, 12, 25 μg/kg, one-way ANOVA): highly significant overall effect | CPP difference score vs saline-injected controls ([3]; α6L9′S mice, 1 and 25 μg/kg, Tukey HSD p < 0.05): significantly greater than the saline-injected controls | Hit [4]: FALSE | Inhibition ([4]; [3H]-7-MeOxy-Prazosin): -8.31% | Hit [5]: FALSE | Inhibition ([5]; [3H]MK-912): 6.75% | Hit [6]: FALSE | Inhibition ([6]; [3H]MK-912): 6.28% | Hit [7]: FALSE | Inhibition ([7]; [125]I-Iodo-cyanopindolol): -8.25% | Hit [8]: FALSE | Inhibition ([8]; [3H]-SCH23390): -2.94% | Hit [9]: FALSE | Inhibition ([9]; [3H]GABA): -2.66% | Hit [10]: FALSE | Inhibition ([10]; [3H]AMPA): -1.26% | Hit [11]: FALSE | Inhibition ([11]; [3H]MK-801): 5.46% | Hit [12]: FALSE | Inhibition ([12]; [3H]TCP): 7.71% | Hit [13]: FALSE | Inhibition ([13]; [3H]Strychnine): -7.63% | Hit [14]: FALSE | Inhibition ([14]; [3H]Pyrilamine): 15.56% | Hit [15]: FALSE | Inhibition ([15]; [3H]Scopolamine, N-Methyl): -4.77% | Hit [16]: FALSE | Inhibition ([16]; [3H]Scopolamine, N-Methyl): 2.24% | Hit [17]: FALSE | Inhibition ([17]; [3H]Nisoxetine): 23.72% | Hit [18]: FALSE | Inhibition ([18]; [3H]-Naltrindole): -2.12% | Hit [19]: FALSE | Inhibition ([19]; [3H]5-CT): 9.99% | Hit [20]: FALSE | Inhibition ([20]; [3H]-LSD): 8.87% | Hit [21]: FALSE | Inhibition ([21]; [3H]Nitrendipine): -3.91% | Hit [22]: FALSE | Inhibition ([22]; [125I]-Conotoxin GVIA): -0.60% | Hit [23]: FALSE | Inhibition ([23]; [3H]TBOB): 6.83% | Hit [24]: FALSE | Inhibition ([24]; 3H SQ 29,548): 3.14% | Hit [25]: FALSE | Inhibition ([25]; substrate Fluorescent cyclic GMP): -3.00%
